According to patent US8906936B2, “Pharmaceutical combination comprising co-administration of taxane and N-(1-cyclohexyl-2-{2-[4-(4-fluoro-benzoyl)-thiazol-2-yl]-pyrrolidin-1-yl}-2-oxo-ethyl)-2-methylamino-propionamide or pharmaceutically acceptable salt(s) thereof” (Novartis AG, priority 2005, dated 2014):

Experiments:
[1] = system: orthotopic breast cancer model MDA-MB-231; assay: orthotopic breast cancer model MDA-MB-231, anti-tumor activity; format: in vivo; settings: in combination with Paclitaxel; established tumors treated for two weeks; compared to either single agent
[2] = system: ovarian carcinoma line SKOV3; assay: anti-proliferative activity of combination with Docetaxel in SKOV3 in vitro; format: cell-based; settings: across a dose range
Excerpt: FIG. 1 indicates anti-proliferative activity of compound of formula (III) alone (bottom row), Docetaxel alone (most leftward column) and combinations of the two agents across a dose range. FIG. 2 is the corresponding isobologram at 70% growth inhibition.

melanoma cell line A375 = assay: three day proliferation assay in A375; format: cell-based
Description: Bottom two curves show Taxol dose response in presence of either 6 μM or 12 μM compound of formula (III).

BIR3 domain of CIAP1 = BIR3 domain of CIAP1 (Homo sapiens, UniProt Q13490); assay: affinity for BIR3 domain of CIAP1; format: binding
SKOV3 = assay: 72 hr MTS assay, LBW242 with or without Taxol, SKOV3; format: cell-based, human
Excerpt: (§1) 1. […] MTS Data is generated as described below:
(§2) Selection of IAP Inhibitor Dose Levels

MDA231 = assay: 72 hr MTS assay, LBW242 with or without Taxol, MDA231; format: cell-based, human
Excerpt: as §1, §2

[3] = system: tumor cell lines representing lung, ovarian, melanoma, pancreatic cancers; assay: 72 hr MTS assay, panels of tumor cell lines (lung, ovarian, melanoma, pancreatic)
Description: To determine whether the spectrum of tumor cell lines which responded to these agents would be wider in combination with the cytotoxic drug Taxol, we subject panels of tumor cell lines representing a number of human cancers to in vitro combination analyses.
MTS Reagent (#G1111; Promega) in PBS, pH 6-6.5. […] Tumor Cell Lines are purchased from ATCC.
Cell proliferation/cell death is analyzed in 72 hr. […] Tumor cell lines are plated at subconfluent densities in 96 well plate format and allowed to adhere for 12-16 hr. Cpds are then added according to the following schemes: i.
Chemotherapeutic agents or cytotoxic cpds (Ctx) are added alone, in an 8-point/10-fold titration scheme from high to low dose, in triplicate. ii. […] Once all dosing is completed, cells are cultured for a further 72 hr. and then assayed using the MTS format:
Plate cells in RPMI/10% FBS Complete medium. […]
Add MTS/PMS reagents to T.0 Plate(s). […] Read OD 490 nm using SoftMax Pro software on a Molecular Devices (Sunnyvale, Calif.) Spectrophotometer. Calculate T.0 values for each cell line to be assayed by generating the mean value of the OD 490 nm readings from each cell line's T.0 wells (6/cell line) and subtracting the mean OD 490 nm values from Blank wells. […]
Add 20 ul mixture to ea. well & incubate plate(s) 2 hr. @ 37° C./5% CO2. Read OD 490 nm using SoftMax Pro software on a Molecular Devices Spectrophotometer. […]

BIR3 domain of XIAP = BIR3 domain of XIAP (Homo sapiens, UniProt P98170); assay: affinity for BIR3 domain of XIAP; format: binding
[4] = criterion: minimum five fold potency shift of Taxol IC50 relative to Taxol alone

BIR3 domain of CIAP1, sequence (Q13490 253-363 limits assumed): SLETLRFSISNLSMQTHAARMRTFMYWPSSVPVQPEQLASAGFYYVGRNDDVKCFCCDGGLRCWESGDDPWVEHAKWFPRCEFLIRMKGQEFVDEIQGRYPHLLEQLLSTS
BIR3 domain of XIAP, sequence (P98170 241-356 limits assumed): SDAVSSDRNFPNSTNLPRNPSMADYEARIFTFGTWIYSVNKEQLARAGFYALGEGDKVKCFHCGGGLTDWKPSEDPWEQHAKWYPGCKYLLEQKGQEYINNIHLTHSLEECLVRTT

## CN[C@@H](C)C(=O)N[C@H](C(=O)N1CC[C@H]2CCN(CCc3ccccc3)C[C@H]21)C1CCCCC1 [compound of formula (III)]
[1]
  anti-tumor activity of the combination with Paclitaxel: superior anti-tumor activity compared to either agent administered as a single agent
[2]
  interaction of the combination with Docetaxel (anti-proliferative activity): significant synergy
Melanoma cell line A375; Taxol dose response in presence of 6 μM or 12 μM compound of formula (III), A375, three day
  anti-proliferative activity of Taxol in combination: dramatically enhanced
Melanoma cell line A375; single agent, A375 (data not shown)
  stand alone activity: no stand alone activity

## CN[C@@H](C)C(=O)N[C@H](C(=O)N1CC[C@H]2CCN(CCc3ccccc3)C[C@H]21)C1CCCCC1 [LBW242]
BIR3 domain of CIAP1
  affinity: nM affinity
SKOV3; [4]
  combination activity with Taxol: exhibit combination activity
SKOV3; single agent
  response to monotherapy: responsive
MDA231; [4]
  combination activity with Taxol: exhibit combination activity
MDA231; single agent
  response to monotherapy: responsive
[3]; in combination with Taxol
  range of tumor cell lines sensitive in combination with a cytotoxic agent versus as a single agent: slightly larger
[3]; single agent, in vitro
  single agent activity across tumor cell lines: single agent activity on a limited number of tumor cell lines

## CN[C@@H](C)C(=O)N[C@H](C(=O)N1CCC[C@H]1c1nc(C(=O)c2ccc(F)cc2)cs1)C1CCCCC1 [LCL161]
BIR3 domain of XIAP
  affinity: nM affinity
